Laboratory results: patent publication EP4635945A1, “CRYSTAL FORM OF PROXIMOD, PREPARATION METHOD THEREFOR, AND USE THEREOF” (Jiankuan (Suzhou) Biotechnology Co., Ltd, priority 2022, dated 2024)

Experiments:
Type in all cases: physicochemical
[1] = Fluidity: angle of repose, bulk and tap density, Hausner ratio; conditions: hydrochloride
Procedure: This experiment was performed by using a tap density tester according to the fixed-volume method. The specific operations are as follows: The weighed powder, with a volume of 50 mL, was loaded into a graduated cylinder, and the graduated cylinder was secured onto a support. The graduated cylinder was set to be vibrated at 55 ± 5 vibrations per minute for 6-8 minutes. The volume change of the powder was measured in a measuring cup. The ratio of the weight of the powder to the volume (50 mL) before tapping is the bulk density of the powder, and the ratio of the weight of the powder to the volume after tapping is the tapped density of the powder.
The Hausner ratio and the compression degree were converted in the following methods. Hausner ratio = tap density/bulk density [formula] Compression degree = (tapdensity−bulkdensity)/tap density [formula]
This experiment was performed by a pouring method, and the angles of repose of the drug substances of the two crystal forms were measured in combination with a residual cone method to analyze their fluidities. The specific operations are as follows: The powder was poured onto the center of a disk with a specific diameter, and when the material on the slope of the powder pile began to flow freely out along the periphery of the disk, the pouring of the powder was stopped. The height (h) of the cone was measured, and the angle of repose was calculated in combination with the diameter (2r) of the disk, that is, tanQ = h/r.

[2] = Mechanical stability: grinding in agate mortar, XRPD; conditions: 50 mg ground with an agate mortar for 5 minutes; hydrochloride
From the text: The samples before and after ground were detected by XRPD.

[3] = Compressibility: tableting, hardness and tensile strength; conditions: die with a diameter of 6 mm
Procedure: In this experiment, a die with a diameter of 6 mm was used. The drug substance and the drug substance + excipient were tableted under the same pressure, respectively. After the elasticity of the prepared tablets was restored, the radial crushing force F, diameter D, and thickness L of the tablets were measured. The tensile strength of the tablets was calculated according to the following formula: Ts = 2F/IIDL.

[4] = Equilibrium solubility in organic solvents at room temperature (HPLC, XRPD of solids); conditions: 24 hours of equilibrium, hydrochloride
Procedure: (§1) After 24 hours of equilibrium, the saturated solutions were obtained by filtration. The contents of the samples in the saturated solutions were determined by high-performance liquid chromatography (HPLC) (the filtered solutions were diluted as needed), and the crystal forms of the solids before and after the experiment were characterized by XRPD to check whether phase changes occurred.

[5] = Dynamic solubility in biorelevant media and buffers at 37 °C (HPLC, XRPD of solids)
Procedure: as §1, with “1 hour/2 hours/4 hours/24 hours,” for “24 hours of equilibrium,”, “actual concentrations” for “contents”

[6] = Hygroscopicity by dynamic vapor sorption (DVS)
From the text: (§2) In the examples of the present application, the instrument used for the X-ray powder diffraction test is the D2 Phaser produced by Bruker. The instrument used for the differential scanning calorimetry test is the differential scanning calorimeter DSC 250 produced by TA Instruments. The instrument used for the thermogravimetric analysis is the thermogravimetric analyzer TGA 55 produced by TA Instruments. The instrument used for the FT-IR test is the Fourier infrared spectrometer ID1-summit produced by Thermo. The instrument used for the dynamic vapor sorption test is the DVS Intrinsic produced by Surface Measurement Systems (SMS). The instrument used for the microscopy is the microscope NJF-120A produced by Suzhou Nanguang Electronic Technology Co., Ltd.

[7] = Adhesiveness: PE bag adhesive rate; conditions: flipped at 5 rpm, 10 minutes in each direction; hydrochloride
Procedure: The bags were sealed, flipped at a rotational speed of 5 rpm for 10 minutes, and continued to be flipped in a different flipping direction at a fixed rotational speed for 10 minutes. The materials were poured out of the bags, and the materials remaining in the bags were accurately weighed to calculate the adhesive rate.
The adhesive rate was calculated according to the following formula: Adhesive rate = (initialmaterialweight-remainingmaterialweight)/contact surface area. [formula]

[8] = Microscopic morphology and particle size; conditions: microscopy
From the text: as §2

[9] = Intrinsic dissolution of tableted crystal forms; conditions: hydrochloride
[10] = FaSSIF (pH of 8.0), 1 hour, hydrochloride
[11] = FaSSIF (pH of 8.0), 2 hours, hydrochloride
[12] = pH = 4.0 acetic acid-sodium acetate buffer, 1 hour, hydrochloride
[13] = pH = 4.0 acetic acid-sodium acetate buffer, 2 hours, hydrochloride
[14] = pH = 4.0 acetic acid-sodium acetate buffer, 4 hours, hydrochloride
[15] = pH = 4.0 acetic acid-sodium acetate buffer, 24 hours, hydrochloride
[16] = pH = 6.8 phosphate buffer, 4 hours
[17] = pH = 6.8 phosphate buffer, 24 hours

**Q.** With `CCCc1nc(-c2ccc(-c3ccc(CCC(N)(CO)CO)cc3)cc2)co1.Cl` [Crystal form B, 2-amino-2-{2-(4'-(2-propyloxazol-4-yl)-[1,1'-biphenyl]-4-yl)ethyl}-1,3-propanediol hydrochloride] as the compound, how does the Compression degree ([1]; (tap density − bulk density)/tap density) read?
**A.** 58.0%

**Q.** What about the Bulk density ([1]; fixed-volume method, 50 mL) of the same compound?
**A.** 0.14 g/mL

**Q.** What about the Tap density ([1]; fixed-volume method, after tapping) of the same compound?
**A.** 0.33 g/mL

**Q.** What about the Angle of repose ([1]; pouring method with residual cone method) of the same compound?
**A.** 64.95 °

**Q.** And the Hausner ratio ([1]; tap density/bulk density)?
**A.** 2.4

**Q.** And the “Crystal form after ground (XRPD)” value [2]?
**A.** partially crystal transformed into the crystal form A

**Q.** What about the “Tensile strength Ts” value ([3]; Ts = 2F/IIDL, hydrochloride) of the same compound?
**A.** 0.10

**Q.** What about the Hardness ([3]; same pressure, hydrochloride) of the same compound?
**A.** 3 N

**Q.** What about the Experimental phenomena ([3]; tableting) of the same compound?
**A.** Severe punch sticking

**Q.** And the Solubility ([4]; Acetone)?
**A.** 32 µg/mL

**Q.** What about the Solubility ([4]; Ethanol) of the same compound?
**A.** 7610 µg/mL

**Q.** What about the Solubility ([4]; Ethyl acetate) of the same compound?
**A.** Not detected

**Q.** What about the “Crystal form of the solid” value [5, 10] of the same compound?
**A.** Free alkali

**Q.** And the Solubility [5, 10]?
**A.** 70 µg/mL

**Q.** What about the “Crystal form of the solid” value [5, 11] of the same compound?
**A.** Free alkali

**Q.** What about the Solubility [5, 11] of the same compound?
**A.** 200 µg/mL

**Q.** What about the “Crystal form of the solid” value ([5]; FaSSIF (pH of 8.0), 4 hours) of the same compound?
**A.** Free alkali

**Q.** What about the Solubility ([5]; FaSSIF (pH of 8.0), 4 hours, hydrochloride) of the same compound?
**A.** 410 µg/mL

**Q.** What about the “Crystal form of the solid” value ([5]; FaSSIF (pH of 8.0), 24 hours) of the same compound?
**A.** Free alkali

**Q.** What about the Solubility ([5]; FaSSIF (pH of 8.0), 24 hours, hydrochloride) of the same compound?
**A.** 100 µg/mL

**Q.** What about the Solubility ([5]; FeSSIF (pH of 5.0), 1 hour, hydrochloride) of the same compound?
**A.** 2580 µg/mL

**Q.** And the Solubility ([5]; FeSSIF (pH of 5.0), 2 hours, hydrochloride)?
**A.** 2300 µg/mL

**Q.** And the Solubility ([5]; FeSSIF (pH of 5.0), 4 hours, hydrochloride)?
**A.** 2560 µg/mL

**Q.** And the “Crystal form of the solid” value ([5]; FeSSIF (pH of 5.0), 24 hours)?
**A.** no crystal form change

**Q.** And the Solubility ([5]; FeSSIF (pH of 5.0), 24 hours, hydrochloride)?
**A.** 3460 µg/mL

**Q.** What about the Solubility ([5]; SGF (pH of 1.0), 1 hour, hydrochloride) of the same compound?
**A.** 310 µg/mL

**Q.** And the Solubility ([5]; SGF (pH of 1.0), 2 hours, hydrochloride)?
**A.** 270 µg/mL

**Q.** And the Solubility ([5]; SGF (pH of 1.0), 4 hours, hydrochloride)?
**A.** 290 µg/mL

**Q.** What about the Solubility ([5]; SGF (pH of 1.0), 24 hours, hydrochloride) of the same compound?
**A.** 310 µg/mL

**Q.** And the “Crystal form of the solid” value ([5]; Water, 1 hour, hydrochloride)?
**A.** B + F

**Q.** And the Solubility ([5]; Water, 1 hour, hydrochloride)?
**A.** 1910 µg/mL

**Q.** What about the “Crystal form of the solid” value ([5]; Water, 2 hours, hydrochloride) of the same compound?
**A.** B + F

**Q.** What about the Solubility ([5]; Water, 2 hours, hydrochloride) of the same compound?
**A.** 2430 µg/mL

**Q.** What about the “Crystal form of the solid” value ([5]; Water, 4 hours, hydrochloride) of the same compound?
**A.** B + F

**Q.** What about the Solubility ([5]; Water, 4 hours, hydrochloride) of the same compound?
**A.** 2240 µg/mL

**Q.** And the “Crystal form of the solid” value ([5]; Water, 24 hours, hydrochloride)?
**A.** B + F

**Q.** What about the Solubility ([5]; Water, 24 hours, hydrochloride) of the same compound?
**A.** 2610 µg/mL

**Q.** What about the Solubility ([5]; pH = 1.0 hydrochloric acid aqueous solution, 1 hour, hydrochloride) of the same compound?
**A.** 270 µg/mL

**Q.** What about the Solubility ([5]; pH = 1.0 hydrochloric acid aqueous solution, 2 hours) of the same compound?
**A.** 280 µg/mL

**Q.** What about the Solubility ([5]; pH = 1.0 hydrochloric acid aqueous solution, 4 hours, hydrochloride) of the same compound?
**A.** 280 µg/mL

**Q.** And the Solubility ([5]; pH = 1.0 hydrochloric acid aqueous solution, 24 hours, hydrochloride)?
**A.** 300 µg/mL

**Q.** What about the “Crystal form of the solid” value [5, 12] of the same compound?
**A.** B + F

**Q.** And the Solubility [5, 12]?
**A.** 1910 µg/mL

**Q.** What about the “Crystal form of the solid” value [5, 13] of the same compound?
**A.** B + F

**Q.** What about the Solubility [5, 13] of the same compound?
**A.** 2350 µg/mL

**Q.** And the “Crystal form of the solid” value [5, 14]?
**A.** B + F

**Q.** And the Solubility [5, 14]?
**A.** 1990 µg/mL

**Q.** And the “Crystal form of the solid” value [5, 15]?
**A.** B + F

**Q.** And the Solubility [5, 15]?
**A.** 2310 µg/mL

**Q.** And the “Crystal form of the solid” value ([5]; pH = 6.8 phosphate buffer, 1 hour)?
**A.** Free alkali

**Q.** What about the Solubility ([5]; pH = 6.8 phosphate buffer, 1 hour, hydrochloride) of the same compound?
**A.** Not detected

**Q.** And the “Crystal form of the solid” value ([5]; pH = 6.8 phosphate buffer, 2 hours)?
**A.** Free alkali

**Q.** And the “Crystal form of the solid” value [5, 16]?
**A.** Free alkali

**Q.** And the Solubility [5, 16]?
**A.** Not detected

**Q.** And the “Crystal form of the solid” value [5, 17]?
**A.** Free alkali

**Q.** What about the Solubility [5, 17] of the same compound?
**A.** Not detected

**Q.** And the solubility at 2 h ([5]; phosphate buffer, pH 6.8, aqueous buffer, thermodynamic from solid, pH = 6.8 phosphate buffer, 2 hours)?
**A.** 0.28 µg/mL

**Q.** What about the “Weight gain by water absorption (DVS)” value ([6]; 25.6 °C/90% RH) of the same compound?
**A.** 0.30%

**Q.** What about the Hygroscopicity description ([6]; DVS, 90% RH, hydrochloride) of the same compound?
**A.** slightly hygroscopic

**Q.** And the “Weight gain by water absorption (DVS)” value ([6]; vapor sorption at 25 °C/90% RH)?
**A.** 0.26%

**Q.** What about the “PE bag adhesive rate” value [7] of the same compound?
**A.** 0.0003 g/cm^2

**Q.** What about the Maximum particle size [8] of the same compound?
**A.** less than 100 µm

**Q.** What about the Length/short diameter ratio ([8]; hydrochloride) of the same compound?
**A.** 1-6

**Q.** And the Microscopic morphology ([8]; hydrochloride)?
**A.** rod-shaped

**Q.** And the Dissolution amount ([9]; Medium Water, 5 min)?
**A.** Not detected

**Q.** What about the Dissolution amount ([9]; Medium Water, 10 min) of the same compound?
**A.** 0.0002 mg/mL

**Q.** What about the Dissolution amount ([9]; Medium Water, 30 min) of the same compound?
**A.** 0.0003 mg/mL

**Q.** What about the Dissolution amount ([9]; Medium Water, 45 min) of the same compound?
**A.** 0.0009 mg/mL

**Q.** And the Dissolution amount ([9]; Medium Water, 60 min)?
**A.** 0.0003 mg/mL

**Q.** What about the Dissolution amount ([9]; Medium Water, 90 min) of the same compound?
**A.** 0.0004 mg/mL

**Q.** And the Dissolution amount ([9]; Medium pH = 4.0, flow rate 4 mL/minute, 5 min)?
**A.** 0.0307 mg/mL

**Q.** And the Dissolution amount ([9]; Medium pH = 4.0, flow rate 4 mL/minute, 10 min)?
**A.** 0.0404 mg/mL

**Q.** What about the Dissolution amount ([9]; Medium pH = 4.0, flow rate 4 mL/minute, 30 min) of the same compound?
**A.** 0.0461 mg/mL

**Q.** And the Dissolution amount ([9]; Medium pH = 4.0, flow rate 4 mL/minute, 45 min)?
**A.** 0.0488 mg/mL

**Q.** What about the Dissolution amount ([9]; Medium pH = 4.0, flow rate 4 mL/minute, 60 min) of the same compound?
**A.** 0.0469 mg/mL

**Q.** And the Dissolution amount ([9]; Medium pH = 4.0, flow rate 4 mL/minute, 90 min)?
**A.** 0.0487 mg/mL
